Measured values taken from patent publication US11400084B2 (BioTheryX, Inc., priority 2018, dated 2022).
One block for each compound: values may come before it.

Tests used:
[1] = biological target: T1, IKAROS (Homo sapiens, UniProt Q13422+Q96SW2); experiment: Western blot IKAROS degradation assay in MV-4-11 cells; format: cell-based; conditions: 6-8 hours
T1 construct: endogenous in cells; host or cells: MV-4-11
Description: (§1) MV-4-11 cells were grown in RPMI 1640 media supplemented with 10% fetal bovine serum, streptomycin and penicillin.
(§2) Cells were cultured at approximately 10^6 cells per mL and incubated in DMSO or the indicated compound for 6-8 hours. Whole cell extracts were prepared using RIPA buffer according to manufacturer's protocol (Pierce). Briefly, 3×10^6 cells were washed once in PBS, the cell pellets were resuspended in RIPA buffer and allowed to incubate for 15 minutes on ice. Cells debris was removed by centrifugation and the cleared whole cell lysates were transferred to new tubes for further analysis.
(§3) For Western blot analysis, whole cell protein extracts were separated on 4-12% SDS-polyacrylamide gels, transferred to nitrocellulose and probed with the indicated primary antibodies. Membranes were subsequently washed and probed with the appropriate IRDye secondary antibodies (LI-COR). The signal was detected using the Odyssey Imaging System (LI-COR).
(§4) The following antibodies were used in these studies: Anti-eRF3/GSPT1: Abcam, ab126090 (Cambridge, Mass.); Anti-Ikaros: Abcam, ab191394 (Cambridge, Mass.); Anti-CK1α: Abcam, ab108296 (Cambridge, Mass.); β-actin (8H10D10) mouse monoclonal antibody: Cell Signaling Technology, #3700 (Danvers, Mass.); IRDye 680RD Goat anti-rabbit antibody: LI-COR, 926-68071 (Lincoln, Nebr.); IRDye 800CW Goat anti-mouse antibody: LI-COR, 926-32210 (Lincoln, Nebr.).
(§5) In each of Tables 1-3, the % degradation values are reported as “A”, “B”, “C”, or “D.” “A” represents a % degradation value of less than 25% (value<25%); “B” represents a % degradation value of equal to or more than 25% and less than 50% (25%≤value<50%); “C” represents a % degradation value of equal to or more than 50% and less than 75% (50%≤value<75%); and “D” represents a % degradation value of equal to or more than 75% (value≥75%).

[2] = biological target: T2, CK1α (Homo sapiens, UniProt P48729+Q96SW2); experiment: Western blot CK1α degradation assay in MV-4-11 cells; format: cell-based; conditions: 6-8 hours
T2 construct: endogenous in cells; host or cells: MV-4-11
Description: as §1, §2, §3, §4, §5

[3] = tested on: IL-1β; experiment: IL-1β inhibition assay, LPS-induced PBMCs or CD14+ monocytes, Meso Scale; format: cell-based; conditions: 100 ng/mL LPS 18-24 h
Description: (§6) Either frozen primary blood mononuclear cells (PBMCs) or frozen CD14+ mobilized peripheral blood monocytes were purchased from AllCells (PB003F, Normal Peripheral Blood MNC (Alameda, Calif.)). Cells were quick thawed, washed 1-time with RPMI-1640 (10% FBS/1% Pen-Strep) and plated in 96 well plates at 200,000 cells per well. Cells were pretreated with DMSO only or with the indicated compound for 1 h and then induced with 100 ng/mL lipopolysaccharide (LPS) for 18-24 h. The supernatant was analyzed for IL-1β, IL-6, and TNFα, using Meso Scale assay according to manufacturer's protocol. The negative control wells were treated with DMSO.

[4] = tested on: TNFα; experiment: TNF-α inhibition assay, LPS-induced PBMCs or CD14+ monocytes, Meso Scale; format: cell-based; conditions: 100 ng/mL LPS 18-24 h
Description: as §6

[5] = tested on: IL-2; experiment: IL-2 fold-change assay, anti-CD3 stimulated PBMCs, Mesoscale; format: cell-based; conditions: Homo sapiens, PBMC, 24 h, fold difference from the DMSO control
Description: For the IL-2 analysis, 96 well plates were precoated with 1 μg/mL anti-human CD3 antibody (OKT3, eBioscience Inc., San Diego, Calif.). After washing with PBS, the indicated compound was added (50 μL/well) followed by PBMCs diluted at 3-4 million cells/mL (150 μL/well). Plates were incubated for 24 h and the supernatants collected for Mesoscale IL-2 analysis. IL-2 activity is measured as fold difference from the DMSO control.
In Table 7, the fold-change values are reported as “A”, “B”, “C”, or “D”. “A” represents a fold-change value of equal to or less than 1 (value≤1); “B” represents a fold-change value of more than 1 and equal to or less than 2 (1<value≤2); “C” represents a fold-change value of more than 2 and equal to or less than 3 (2<value≤3); and “D” represents a fold-change value of more than 3 (value>3).

[6] = tested on: MOLM-13 cells; experiment: MOLM-13 cell viability assay (CellTiter-Glo 2, 3 days, 2500 cells/well); format: cell-based; conditions: Homo sapiens, MOLM-13, 72 h, percentage of DMSO control
Description: MOLM-13 cells were cultured in RPMI 1640 media supplemented with 10% fetal bovine serum, streptomycin and penicillin, and were plated in white walled 96-well plates at 2500 cells/well. Cells were incubated in DMSO (control) or the indicated compound for 3 days at 37° C. and 5% CO2. Following the incubation period, 100 μL of CellTiterGlow2 (CTG2) reagent (CellTiter-Glo®2 Luminescent Cell Viability Assay, Promega (Madison, Wis.)) was added to each well. Following a 10 minutes incubation with shaking, luminescence was measured using the EnVision Multimode plate reader.
The MOLM-13 cell viability values, measured as percentages of the DMSO control, are reported in Table 8 as “A”, “B”, “C”, or “D.” “A” represents a % viability value of less than 40% (value<40%). “B” represents a % viability value of equal to or more than 40% and less than 60% (40%≤value<60%). “C” represents a % viability value of equal to or more than 60% and less than 90% (60%≤value<90%). “D” represents a % viability value of equal or more than 90% (value≥90%).

[7] = biological target: T3, GSPT1 (Homo sapiens, UniProt P15170+Q96SW2); experiment: Western blot GSPT1 degradation assay in MV-4-11 cells; format: cell-based; conditions: 1 μM, MV-4-11 cells, 6-8 hours
T3 construct: whole cell protein extracts were separated on 4-12% SDS-polyacrylamide gels; endogenous in cells; host or cells: MV-4-11
Description: as §1, §2, §3, §4, §5

[8] = tested on: MV-4-11 cells; experiment: Comparative study cell viability, MV-4-11 cells (CTG2, 3 days); format: cell-based; conditions: relative to Compound 1
Description: (§7) Molm-13 and MV-4-11 cells (both leukemia cell lines) were cultured in RPMI 1640 media supplemented with 10% fetal bovine serum, streptomycin and penicillin, and were plated in white walled 96-well plates at 20,000 cells/well. THLE-2 cells (T-antigen immortalized human liver epithelial cells) were cultured using BEGM Bullet kit (Lonza CC-3170) supplemented with 10% fetal bovine serum, streptomycin and penicillin, and were plated in white walled 96-well plates 5000 cells/well. NHLF (normal human lung fibroblast) cells were cultured in DMEM media supplemented with 10% fetal bovine serum, streptomycin and penicillin, and were plated in white walled 96-well plates at 5000 cells/well. Cells were incubated in DMSO (control) or the indicated compounds for 3 days at 37° C. and 5% CO2. Following the incubation period, 100 μL of CellTiterGlow2 (CTG2) reagent (CellTiter-Glo®2 Luminescent Cell Viability Assay, Promega (Madison, Wis.)) was added to each well. Following a 10 minutes incubation with shaking, luminescence was measured using the Victor Wallac Luminometer or the Envision 2105 multimode plate reader.

[9] = tested on: THLE-2 cells; experiment: Comparative study cell viability, THLE-2 cells (CTG2, 3 days); format: cell-based, human; conditions: relative to Compound 1
Description: as §7

T2 sequence (P48729 whole entry): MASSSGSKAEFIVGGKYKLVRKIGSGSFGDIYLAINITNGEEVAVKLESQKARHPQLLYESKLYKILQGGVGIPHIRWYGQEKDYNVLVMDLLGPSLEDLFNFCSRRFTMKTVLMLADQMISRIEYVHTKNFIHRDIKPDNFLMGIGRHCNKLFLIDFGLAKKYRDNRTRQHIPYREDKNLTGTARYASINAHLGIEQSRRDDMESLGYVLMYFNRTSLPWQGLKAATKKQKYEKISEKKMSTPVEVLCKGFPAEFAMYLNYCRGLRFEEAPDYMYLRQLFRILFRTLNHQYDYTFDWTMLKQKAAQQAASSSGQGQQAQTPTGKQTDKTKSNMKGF
T2 sequence (Q96SW2 whole entry): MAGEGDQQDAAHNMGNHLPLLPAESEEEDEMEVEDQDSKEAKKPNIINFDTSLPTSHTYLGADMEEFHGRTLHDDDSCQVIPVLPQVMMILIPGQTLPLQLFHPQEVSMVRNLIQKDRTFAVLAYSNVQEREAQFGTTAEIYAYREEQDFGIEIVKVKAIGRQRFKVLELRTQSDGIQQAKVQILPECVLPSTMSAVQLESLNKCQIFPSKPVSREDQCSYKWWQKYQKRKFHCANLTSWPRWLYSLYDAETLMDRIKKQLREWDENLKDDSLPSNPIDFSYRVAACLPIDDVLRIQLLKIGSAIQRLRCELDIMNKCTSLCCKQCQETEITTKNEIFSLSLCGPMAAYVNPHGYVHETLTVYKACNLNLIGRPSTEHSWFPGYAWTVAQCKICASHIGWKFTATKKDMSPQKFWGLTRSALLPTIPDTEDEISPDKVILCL
T2 sequence (Q16531 whole entry partner): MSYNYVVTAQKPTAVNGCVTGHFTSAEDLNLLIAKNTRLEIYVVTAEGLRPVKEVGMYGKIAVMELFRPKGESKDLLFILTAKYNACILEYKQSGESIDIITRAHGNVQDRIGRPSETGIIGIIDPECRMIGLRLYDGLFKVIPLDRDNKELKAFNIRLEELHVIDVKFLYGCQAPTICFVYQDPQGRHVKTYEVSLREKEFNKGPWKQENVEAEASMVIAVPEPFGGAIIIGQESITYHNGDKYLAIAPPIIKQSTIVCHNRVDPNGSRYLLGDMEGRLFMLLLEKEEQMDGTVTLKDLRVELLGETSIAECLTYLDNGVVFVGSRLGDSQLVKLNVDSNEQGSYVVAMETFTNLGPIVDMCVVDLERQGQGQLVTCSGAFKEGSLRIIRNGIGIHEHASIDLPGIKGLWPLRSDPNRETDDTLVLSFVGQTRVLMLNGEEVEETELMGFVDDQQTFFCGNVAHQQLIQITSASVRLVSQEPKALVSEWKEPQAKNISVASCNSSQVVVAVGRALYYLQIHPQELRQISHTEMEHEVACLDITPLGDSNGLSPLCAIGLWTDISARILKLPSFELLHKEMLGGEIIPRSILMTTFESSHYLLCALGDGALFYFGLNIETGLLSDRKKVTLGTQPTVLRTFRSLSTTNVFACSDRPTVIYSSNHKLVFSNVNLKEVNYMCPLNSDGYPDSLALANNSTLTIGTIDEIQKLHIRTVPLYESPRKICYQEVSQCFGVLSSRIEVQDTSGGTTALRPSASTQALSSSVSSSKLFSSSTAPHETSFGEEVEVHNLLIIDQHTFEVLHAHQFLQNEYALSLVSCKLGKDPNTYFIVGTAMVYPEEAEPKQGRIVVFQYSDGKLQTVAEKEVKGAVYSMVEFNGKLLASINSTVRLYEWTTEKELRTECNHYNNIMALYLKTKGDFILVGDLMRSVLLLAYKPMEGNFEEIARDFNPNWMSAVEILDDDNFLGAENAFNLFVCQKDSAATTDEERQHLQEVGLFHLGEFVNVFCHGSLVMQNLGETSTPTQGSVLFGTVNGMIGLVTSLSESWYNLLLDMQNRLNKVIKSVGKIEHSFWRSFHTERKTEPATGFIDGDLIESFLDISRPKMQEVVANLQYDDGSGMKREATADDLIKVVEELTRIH
T1 sequence (Q13422 whole entry): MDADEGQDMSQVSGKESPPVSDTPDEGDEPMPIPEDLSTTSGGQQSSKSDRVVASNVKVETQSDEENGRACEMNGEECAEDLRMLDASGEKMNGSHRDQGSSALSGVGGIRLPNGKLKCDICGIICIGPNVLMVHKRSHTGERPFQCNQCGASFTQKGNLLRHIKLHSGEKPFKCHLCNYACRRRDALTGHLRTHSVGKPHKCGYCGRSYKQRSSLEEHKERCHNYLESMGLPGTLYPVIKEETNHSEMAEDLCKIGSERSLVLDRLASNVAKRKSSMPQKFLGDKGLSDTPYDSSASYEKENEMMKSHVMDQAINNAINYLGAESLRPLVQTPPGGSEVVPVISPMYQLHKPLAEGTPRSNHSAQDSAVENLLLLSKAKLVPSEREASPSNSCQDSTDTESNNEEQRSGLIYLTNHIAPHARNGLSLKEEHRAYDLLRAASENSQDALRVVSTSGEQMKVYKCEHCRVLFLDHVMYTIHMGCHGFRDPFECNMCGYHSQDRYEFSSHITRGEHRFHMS
T1 sequence (Q96SW2 whole entry): as the sequence (Q96SW2 whole entry) above
T1 sequence (Q16531 whole entry partner): as the sequence (Q16531 whole entry partner) above
T3 sequence (P15170 whole entry): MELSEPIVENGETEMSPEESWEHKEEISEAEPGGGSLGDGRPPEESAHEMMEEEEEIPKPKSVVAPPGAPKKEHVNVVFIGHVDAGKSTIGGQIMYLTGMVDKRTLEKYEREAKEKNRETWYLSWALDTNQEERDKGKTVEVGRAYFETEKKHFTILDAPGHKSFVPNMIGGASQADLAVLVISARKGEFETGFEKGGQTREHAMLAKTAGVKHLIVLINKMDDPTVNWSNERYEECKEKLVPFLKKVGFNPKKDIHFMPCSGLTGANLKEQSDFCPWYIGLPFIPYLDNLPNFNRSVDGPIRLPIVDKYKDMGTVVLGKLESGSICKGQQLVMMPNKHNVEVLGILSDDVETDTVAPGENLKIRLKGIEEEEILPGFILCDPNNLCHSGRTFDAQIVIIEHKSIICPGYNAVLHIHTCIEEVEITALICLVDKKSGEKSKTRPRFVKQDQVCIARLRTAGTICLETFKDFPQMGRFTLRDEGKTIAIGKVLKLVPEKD
T3 sequence (Q96SW2 whole entry): as the sequence (Q96SW2 whole entry) above
T3 sequence (Q16531 whole entry partner): as the sequence (Q16531 whole entry partner) above

SMILES: Cc1ccc(NCC(=O)NCc2csc3c2CN(C2CCC(=O)NC2=O)C3=O)cc1Cl (stereo not shown) [Compound 5, 2-((3-chloro-4-methylphenyl)amino)-N-((5-(2,6-dioxopiperidin-3-yl)-6-oxo-5,6-dihydro-4H-thieno[2,3-c]pyrrol-3-yl)methyl)acetamide]
IKAROS % Degradation at 1 μM [1]: D (a % degradation value of equal to or more than 75% (value≥75%))
CK1α % Degradation at 1 μM [2]: D (a % degradation value of equal to or more than 75% (value≥75%))
inhibition at 1 µM [3]: > 75%
inhibition at 1 µM [4]: > 75%
fold induction at 1 µM [5]: > 3
viability at 1 µM [6]: < 40%

SMILES: Cc1cc(NCC(=O)NCc2scc3c2CN(C2CCC(=O)NC2=O)C3=O)ccc1N(C)C (stereo not shown) [Compound 10, 2-((4-(dimethylamino)-3-methylphenyl)amino)-N-((5-(2,6-dioxopiperidin-3-yl)-4-oxo-5,6-dihydro-4H-thieno[3,4-c]pyrrol-1-yl)methyl)acetamide]
IKAROS % Degradation at 1 μM [1]: A (a % degradation value of less than 25% (value<25%))
CK1α % Degradation at 1 μM [2]: B (a % degradation value of equal to or more than 25% and less than 50% (25%≤value<50%))
GSPT1 % Degradation at 1 μM [7]: D (a % degradation value of equal to or more than 75% (value≥75%))
viability at 1 µM [6]: > 90%

SMILES: Cc1ccc(NCC(=O)NCc2cccc3c2CN(C2CCC(=O)NC2=O)C3=O)cc1Cl (stereo not shown) [Compound 14, 2-((3-chloro-4-methylphenyl)amino)-N-((2-(2,6-dioxopiperidin-3-yl)-1-oxoisoindolin-4-yl)methyl)acetamide]
IKAROS % Degradation at 1 μM [1]: D (a % degradation value of equal to or more than 75% (value≥75%))
CK1α % Degradation at 1 μM [2]: C (a % degradation value of equal to or more than 50% and less than 75% (50%≤value<75%))
GSPT1 % Degradation at 1 μM [7]: C (a % degradation value of equal to or more than 50% and less than 75% (50%≤value<75%))
inhibition at 1 µM [3]: > 75%
inhibition at 1 µM [4]: 50 to 75%
fold induction at 1 µM [5]: 2 to 3
viability at 1 µM [6]: 40 to 60%

IC50 concentration as fold of the IC50 concentration of Compound 1 [8]: over 2 fold
SMILES: O=C(CNc1ccccc1)NCc1ccc2c(c1)CN(C1CCC(=O)NC1=O)C2=O (stereo not shown) [Compound 16, N-((2-(2,6-dioxopiperidin-3-yl)-1-oxoisoindolin-5-yl)methyl)-2-(phenylamino)acetamide]
GSPT1 % Degradation at 1 μM [7]: B (a % degradation value of equal to or more than 25% and less than 50% (25%≤value<50%))
viability at 1 µM [6]: 60 to 90%
IC50 concentration as fold of the IC50 concentration of Compound 1 [9]: over 3 fold

SMILES: Cc1ccc(NCC(=O)NCc2ccc3c(c2)CN(C2CCC(=O)NC2=O)C3=O)nc1Cl (stereo not shown) [Compound 20, 2-((6-chloro-5-methylpyridin-2-yl)amino)-N-((2-(2,6-dioxopiperidin-3-yl)-1-oxoisoindolin-5-yl)methyl)acetamide]
IKAROS % Degradation at 1 μM [1]: B (a % degradation value of equal to or more than 25% and less than 50% (25%≤value<50%))
CK1α % Degradation at 1 μM [2]: B (a % degradation value of equal to or more than 25% and less than 50% (25%≤value<50%))
GSPT1 % Degradation at 1 μM [7]: B (a % degradation value of equal to or more than 25% and less than 50% (25%≤value<50%))
inhibition at 1 µM [3]: < 30%
inhibition at 1 µM [4]: 30 to 50%
viability at 1 µM [6]: > 90%

SMILES: Cc1cc(NCC(=O)NCc2ccc3c(c2)CN(C2CCC(=O)NC2=O)C3=O)ccc1N1CCCC1 (stereo not shown) [Compound 21, N-((2-(2,6-dioxopiperidin-3-yl)-1-oxoisoindolin-5-yl)methyl)-2-((3-methyl-4-(pyrrolidin-1-yl)phenyl)amino)acetamide]
IKAROS % Degradation at 1 μM [1]: C (a % degradation value of equal to or more than 50% and less than 75% (50%≤value<75%))
CK1α % Degradation at 1 μM [2]: A (a % degradation value of less than 25% (value<25%))
GSPT1 % Degradation at 1 μM [7]: C (a % degradation value of equal to or more than 50% and less than 75% (50%≤value<75%))
inhibition at 1 µM [3]: < 30%
inhibition at 1 µM [4]: 30 to 50%
fold induction at 1 µM [5]: 1 to 2
viability at 1 µM [6]: < 40%

SMILES: Cc1ccc(NCC(=O)NCc2ccc3c(c2)CN(C2CCC(=O)NC2=O)C3=O)cc1N1CCCC1 (stereo not shown) [Compound 24, N-((2-(2,6-dioxopiperidin-3-yl)-1-oxoisoindolin-5-yl)methyl)-2-((4-methyl-3-(pyrrolidin-1-yl)phenyl)amino)acetamide]
IKAROS % Degradation at 1 μM [1]: D (a % degradation value of equal to or more than 75% (value≥75%))
CK1α % Degradation at 1 μM [2]: B (a % degradation value of equal to or more than 25% and less than 50% (25%≤value<50%))
GSPT1 % Degradation at 1 μM [7]: D (a % degradation value of equal to or more than 75% (value≥75%))
viability at 1 µM [6]: > 90%

SMILES: Cc1cc(NCC(=O)NCc2ccc3c(c2)CN(C2CCC(=O)NC2=O)C3=O)ccc1N(C)C (stereo not shown) [Compound 25, 2-((4-(dimethylamino)-3-methylphenyl)amino)-N-((2-(2,6-dioxopiperidin-3-yl)-1-oxoisoindolin-5-yl)methyl)acetamide]
CK1α % Degradation at 1 μM [2]: B (a % degradation value of equal to or more than 25% and less than 50% (25%≤value<50%))
GSPT1 % Degradation at 1 μM [7]: C (a % degradation value of equal to or more than 50% and less than 75% (50%≤value<75%))
inhibition at 1 µM [3]: < 30%
inhibition at 1 µM [4]: 30 to 50%
fold induction at 1 µM [5]: 1 to 2
